Experimental data as given in PubChem BioAssay AID488827 (NMMLSC, 2010).
Activity calls are given as the source filed them.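 The calls were made as follows: active = EC50 at or below 33 µM; inactive = the rest.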

The compounds below were run on S. cerevisiae CIT2-GFP strain, flow cytometry GFP, 3 h (assay: yeast TOR branch CIT2-GFP reporter modulators – flow cytometry, KU analogs, dose response, SAR follow-up (AID 488827)).

Structure (SMILES)	EC50
O=[N+]([O-])c1cc(Cl)c2cccnc2c1O	33 µM (inactive)
Cc1ccc(C(c2cc(Cl)c3cccnc3c2O)N2CCN(C)CC2)cc1 (configuration not stated)	45.9 µM (inactive)
O=C(Oc1c(Cl)cc(Cl)c2cccnc12)c1cccc([N+](=O)[O-])c1	251 µM (inactive)
CNc1nc(N)c([N+](=O)[O-])c(Nc2ccccc2OC)n1	3.99 µM
CN1CCN(C(c2ccc(C(F)(F)F)cc2)c2ccc3cccnc3c2O)CC1 (configuration not stated)	87.1 µM (inactive)
O=C(Nc1nc(-c2ccccn2)cs1)c1cc2ccccc2o1	60.6 µM (inactive)
COc1ccc([N+](=O)[O-])c(S(=O)(=O)c2ccc(Cl)cc2)n1	124 µM (inactive)
C/C(=N\NC(=O)c1ccc(C(C)(C)C)cc1)c1ccccn1	71 µM (inactive)
O=C(Oc1c(Cl)cc(Cl)c2cccnc12)c1ccco1	87.4 µM (inactive)
Nc1nc(Nc2cccc(F)c2)nc(Nc2cccc(F)c2)c1[N+](=O)[O-]	36.6 µM (inactive)
Oc1c(I)cc(I)c2cccnc12	166 µM (inactive)
CSC1=NS(=O)(=O)c2c(C)nn(C)c2S1	294 µM (inactive)
Cc1ccc(S(=O)(=O)c2ncccc2[N+](=O)[O-])cc1	191 µM (inactive)
CN(C)CCCNc1nc(N)c([N+](=O)[O-])c(Nc2cccc(F)c2)n1	279 µM (inactive)
CNc1nc(N)c([N+](=O)[O-])c(Nc2cccc(F)c2)n1	2.52 µM
CCOC(=O)CS(=O)(=O)c1nc(-c2ccccc2)cc(C(F)(F)F)n1	109 µM (inactive)

Structure (SMILES)	EC50
Cc1c(C(=O)Nc2nc(-c3ccccn3)cs2)oc2ccccc12	161 µM (inactive)
CNc1nc(N)c([N+](=O)[O-])c(Nc2cccc(Cl)c2)n1	1.07 µM
Clc1ccc(N=c2ssnc2Cl)cc1	81.1 µM (inactive)
Nc1nc(Nc2ccccc2)nc(Nc2cccc(F)c2)c1[N+](=O)[O-]	61.4 µM (inactive)
CNc1nc(N)c([N+](=O)[O-])c(NC2CCCCC2)n1	3.75 µM
O=C1ON=C(c2ccccc2)/C1=C\c1ccco1	188 µM (inactive)
CNc1nc(N)c([N+](=O)[O-])c(Nc2ccccc2)n1	19.1 µM
O=S(=O)(CCN(CCS(=O)(=O)C(F)(F)F)CC1CCCO1)C(F)(F)F (configuration not stated)	65.2 µM (inactive)
Nc1nc(NCCc2ccccc2)nc(Nc2cccc(F)c2)c1[N+](=O)[O-]	93.3 µM (inactive)
CNc1nc(N)c([N+](=O)[O-])c(Nc2ccc(F)cc2)n1	56.3 µM (inactive)
Cc1ccc(/C=C2/C(=O)ON=C2c2ccccc2)o1	39.6 µM (inactive)
O=C(Oc1ccnc2cc(Cl)ccc12)N1CCCCCC1	298 µM (inactive)
CC(C)(C)C(=O)NC(=S)NNC(=O)c1ccc(-c2ccccc2)cc1	66.9 µM (inactive)
CCOC(=O)CSC1=NC(=O)/C(=C\c2ccc(Cl)cc2)S1	120 µM (inactive)
COc1ccc([N+](=O)[O-])c(S(=O)(=O)c2ccccc2)n1	> 300 µM (inactive)
CCOC(=O)CCS(=O)(=O)c1nc(-c2ccccc2)cc(C(F)(F)F)n1	107 µM (inactive)
